Data published in publication PMC12067093, “Discovery and optimisation of a covalent ligand for TRIM25 and its application to targeted protein ubiquitination” (Chemical Science, 2025).

Legend:
[1] = biological target: T1, BRD4 (ubiquitination by TRIM25) (Homo sapiens, UniProt O60885+Q14258); assay: In vitro targeted protein ubiquitination time course assay for BRD4; assay type: biochemical; conditions: TRIM25 4 μM pre-labelled with compound 50 μM, 20 h, 4 °C, excess removed (HB1a 4 μM added directly); 60 min at 30 °C
T1 construct: Recombinant full-length BRD4 (short isoform); Full-length TRIM25 (4 μM) was pre-labelled with either DMSO or compound HB1, HB2 or HB3; made in house; host or cells: Sf9 insect cells (full-length TRIM25); UBA1 and UBCH5B were made as previously described
T1 sequence (Q14258 whole entry, other chains not shown, canonical isoform): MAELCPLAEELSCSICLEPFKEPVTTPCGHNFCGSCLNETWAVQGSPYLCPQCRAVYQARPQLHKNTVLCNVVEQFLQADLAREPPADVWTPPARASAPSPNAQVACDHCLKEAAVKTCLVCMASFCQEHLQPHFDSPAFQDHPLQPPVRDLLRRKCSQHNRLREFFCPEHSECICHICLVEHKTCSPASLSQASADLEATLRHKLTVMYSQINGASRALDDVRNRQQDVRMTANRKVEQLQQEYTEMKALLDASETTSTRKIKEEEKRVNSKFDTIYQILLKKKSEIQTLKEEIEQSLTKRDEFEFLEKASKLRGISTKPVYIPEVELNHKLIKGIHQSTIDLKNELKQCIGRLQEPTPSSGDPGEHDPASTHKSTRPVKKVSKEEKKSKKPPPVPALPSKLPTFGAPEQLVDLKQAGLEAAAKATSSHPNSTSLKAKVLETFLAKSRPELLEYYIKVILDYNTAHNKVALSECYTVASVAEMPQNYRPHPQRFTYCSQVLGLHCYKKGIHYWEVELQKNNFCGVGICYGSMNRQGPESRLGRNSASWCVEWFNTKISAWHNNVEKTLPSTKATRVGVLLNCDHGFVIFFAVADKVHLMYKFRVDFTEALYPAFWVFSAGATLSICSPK
Protocol: 1 containing 500 mM DTT (ThermoFisher Scientific, R0861). Timepoint at 0 min
2 indicates the sample taken prior to the addition of ATP. Samples were analysed by
3 SDS-PAGE and imaged by Coomassie staining, and using the Odyssey CLx Infrared
4 Imaging System (Li-Cor).
6 For targeted protein ubiquitination assays with compounds HB1 – HB3, His10-TRIM25
8 DMSO) or compound HB1, HB2 or HB3 (50 µM, 1% DMSO) in buffer 50 mM HEPES
9 pH 7.5, 150 mM NaCl, 0.5 mM TCEP for 20 h at 4 °C. Protein-compound complexes
11 capture buffer 50 mM Tris pH 7.5, 150 mM NaCl, 5 mM MgCl2, 20 mM imidazole, 0.5
12 mM TCEP, 0.5% IGEPAL for 2 h at 4 °C, with rotation. Beads were washed once with
13 capture buffer to remove excess unreacted compound. Ubiquitination assay reaction
14 mixture comprised components as described above, with the addition of 4 µM BRD4
15 substrate. For reaction with control compound HB1a (JQ1-2PEG), 4 µM HB1a was
16 added directly to the ubiquitination assay reaction mixture. Samples were analysed as
17 described above, and by western blotting against BRD4 (Abcam, ab128874, 1:1000),
18 which was detected by anti-rabbit-HRP secondary antibody (Dako, P0399, 1:2000).
19 Blots were developed in Amersham ECL Western Blotting Detection Reagent (Cytiva,
20 RPN2106), imaged on a ChemiDoc MP Imaging System (Bio-Rad), and bands were
21 analysed in ImageLab (Bio-Rad). […]

TRIM25 PRYSPRY = biological target: T2, TRIM25 PRYSPRY (Homo sapiens, UniProt Q14258); assay: Intact protein LCMS covalent labelling of recombinant TRIM25 PRYSPRY; assay type: binding; conditions: TRIM25 PRYSPRY 10 μM, 4 °C; for TRIM25 PRYSPRY labelling (%): purified compound 50 μM, 24 h; for TRIM25 PRYSPRY labelling: heterobifunctional compound 50 μM, 20 hours
T2 construct: His6-TEV (cleaved yes); made in house; host or cells: Sf9 insect cells (baculovirus)
T2 sequence (Q14258 435-630): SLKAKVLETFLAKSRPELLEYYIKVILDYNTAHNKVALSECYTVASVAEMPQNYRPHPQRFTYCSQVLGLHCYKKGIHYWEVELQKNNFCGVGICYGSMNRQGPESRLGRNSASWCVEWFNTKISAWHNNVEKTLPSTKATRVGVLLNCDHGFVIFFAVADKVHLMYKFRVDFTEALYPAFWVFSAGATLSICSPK
Protocol: 1 resin (ThermoFisher Scientific, 89964), eluted in 100 mM HEPES pH 7, 500 mM NaCl,
2 300 mM Imidazole, 5% glycerol, 1 mM TCEP, and stored at -80 °C.
5 into a pET49 vector with a His6-HRV-3C (Human Rhinovirus) tag and expressed in
6 BL21 E.coli cells (Agilent Technologies; 230132), with induction at 18 °C overnight by
7 addition of isopropyl β-D-1-thiogalactopyranoside (0.5 mM). Cells were harvested by
8 centrifugation at 4000 rpm in a Beckman J6-M1 rotor for 30 min at 4 °C, the
9 supernatant was discarded and cell pellets were either immediately lysed, or stored at
10 -80°C. The protein was purified via His6-capture on HisPurTM Ni-NTA resin in buffer
11 50 mM HEPES pH 7.5, 300 mM NaCl, 0.5 mM TCEP, 20 mM imidazole, washed
12 extensively with both high salt buffer (50 mM HEPES pH 7.5, 1 M NaCl, 0.5 mM TCEP,
13 20 mM imidazole) and wash buffer (50 mM HEPES pH 7.5, 300 mM NaCl, 0.5 mM
14 TCEP, 20 mM imidazole) before elution in buffer 50 mM HEPES pH 7.5, 300 mM NaCl,
15 0.5 mM TCEP, 500 mM imidazole, and tag cleavage with HRV-3C protease. Cleaved
16 protein was further purified by ion exchange chromatography and size exclusion
17 chromatography into 20 mM HEPES pH 7.5, 150 mM NaCl, 0.5 mM TCEP, and stored
21 For the original chloroacetamide fragment screen, 0.25 μM TRIM25 PRYSPRY or
23 25 mM HEPES pH 7.5, 50 mM NaCl buffer. For intact protein liquid chromatography
24 mass spectrometry (LCMS) kinetic characterisation, 0.5 μM TRIM25 PRYSPRY was
25 used. For selectivity testing with recombinant ubiquitin system protein panel, 10 µM
27 7.5, 50 mM NaCl buffer. Samples were then diluted to 0.5 µM for TRIM25 PRYSPRY,
28 TRIM21 PRYSPRY, OTUD7B OTU, ZRANB1 OTU or 1 µM for TRIM2 NHL, UBCH5B,
29 UBC13K92A, UEV1A, OTUD4 OTU, before injection into the LCMS. For TRIM25
30 PRYSPRY mutants, and for labelling of heterobifunctional compounds, 10 µM protein
32 mM NaCl buffer, and samples were diluted to 1 µM protein before injection into the […]

SMILES | TRIM25 PRYSPRY labelling (%) (TRIM25 PRYSPRY) | TRIM25 PRYSPRY labelling (TRIM25 PRYSPRY) [%] | targeted ubiquitination of BRD4 by TRIM25 [1]
Cc1cc(C(=O)N2CCCN(C(=O)CCl)CC2)ccc1-c1ccccc1 [Compound 10] | 94 |  | no targeted ubiquitination of BRD4 was observed
CC1Cc2ccccc2N1C(=O)C1CCCN(C(=O)CCl)C1 (stereo not drawn) [Compound 11] | 96 |  | 

Further lines, with some results ahead:

TRIM25 PRYSPRY labelling (%) (TRIM25 PRYSPRY) | TRIM25 PRYSPRY labelling (TRIM25 PRYSPRY) [%] | SMILES | targeted ubiquitination of BRD4 by TRIM25 [1]
 | 49 | Cc1cc(C(=O)N2CCCN(C(=O)CCl)CC2)ccc1-c1cccc(C(=O)NCCOCCOCCNC(=O)C[C@@H]2N=C(c3ccc(Cl)cc3)c3c(sc(C)c3C)-n3c(C)nnc32)c1 [HB1] | heterobifunctional compound-induced ubiquitination of BRD4
 | 75 | Cc1cc(C(=O)N2CCCN(C(=O)CCl)CC2)ccc1-c1cccc(C(=O)NCCOCCOCCOCCNC(=O)C[C@@H]2N=C(c3ccc(Cl)cc3)c3c(sc(C)c3C)-n3c(C)nnc32)c1 [HB2] | heterobifunctional compound-induced ubiquitination of BRD4
 | 87 | Cc1cc(C(=O)N2CCCN(C(=O)CCl)CC2)ccc1-c1cccc(C(=O)NCCOCCOCCOCCOCCNC(=O)C[C@@H]2N=C(c3ccc(Cl)cc3)c3c(sc(C)c3C)-n3c(C)nnc32)c1 [HB3] | heterobifunctional compound-induced ubiquitination of BRD4
